The series has as its system PTEN-P2/GFP prostate cancer cells. Nature of the series: Effect of naphthoquinone analogs on PTEN-P2/GFP cell proliferation (CellTiter96 formazan-based viability assay). Particulars: for IC50 / viability at 1 µM / viability at 2 µM / viability at 3 µM / viability at 4 µM / viability at 5 µM / viability at 7 µM / viability at 10 µM / viability at 25 µM / viability at 50 µM: Mus musculus, 24 h; for % viability: 24 hrs, listed as 2,6-di-tert-butyl-1,4-naphtoquinone.

[1] abbreviates: 1 μM, medium with 10% FBS and DHT.
The mark [2] stands for this setting: 2 μM, medium with 10% FBS and DHT.
The mark [3] stands for this setting: 3 μM, medium with 10% FBS and DHT.
[4] abbreviates: 4 μM, medium with 10% FBS and DHT.
Where [5] appears, read: 5 μM, medium with 10% FBS and DHT.
[6] abbreviates: 7 μM, medium with 10% FBS and DHT.
[7] abbreviates: 10 μM, medium with 10% FBS and DHT.
Setting [8] is: 25 μM, medium with 10% FBS and DHT.
Setting [9] is: 50 μM, medium with 10% FBS and DHT.

Method: Cell culture: PTEN-P2/GFP are cells that stably express histone H2B-GFP fusion protein.
Cells are grown in DMEM medium containing 10% FBS, 2 mM L-glutamine, 100 U/ml penicillin/100 μg/ml streptomycin, insulin-selenium-transferrin (5 μg/ml insulin), and DHT 10^−8 M final. Androgen withdrawal is achieved by keeping the cells in phenol red-free DMEM medium containing 10% charcoal-treated FBS and the same supplements as in the normal medium except for DHT. Cells are maintained in a humidified incubator at 37° C. and 5% CO2. G418 (100 μg/ml) is added to maintain stable expression of H2B-GFP.
PTEN-P2/GFP prostate cancer cells were plated at a density of 8000 cells/well in 96-well plates (triplicates) in growing medium containing 10% Fetal Bovine Serum and DHT. The next day, increasing concentrations of a naphthoquinone analog (diluted from 10 mM DMSO stock solutions) were incubated for 24 hrs. Cell viability was determined by the formazan-based cytotoxicity assay “CellTiter96Aquaeous nonradioactive proliferation assay” (Promega).

A word on the IC50: it is the concentration that gives 50% inhibition. Read a high IC50 as lower potency. As a reminder, the viability is a read-out of living cells in per cent, often relative to untreated cells. Compound `O=C1C=CC(=O)c2ccccc21` [1,4-naphthoquinone] displayed an IC50 of 24.1 µM. The viability at 1 µM under setting [1] was 100%. In addition, the viability at 2 µM under setting [2] came out at 97%. Moreover, under setting [3], the viability at 3 µM was 93.9%. In addition, under setting [4], the viability at 4 µM amounted to 90.4%. Under setting [5], the viability at 5 µM was 90.1%. Besides, the viability at 7 µM under setting [6] was found to be 88.7%. Besides, under setting [7], the viability at 10 µM is 83%. In addition, the viability at 25 µM under setting [8] was 47.3%. Besides, the viability at 50 µM under setting [9] came to 0.1%.

Consider `O=C1C=CC(=O)c2c(O)ccc(O)c21` [Naphthazarin], for which the IC50 amounted to 1.65 µM, the viability at 1 µM is 73.4%, the viability at 2 µM is 36.4% and the viability at 3 µM was found to be 8.9%. Also, the viability at 4 µM came to 1.5%, the viability at 5 µM was 1.7%, the viability at 7 µM came out at 2.2% and the viability at 10 µM is 2.4%. Moreover, the viability at 25 µM amounted to 5.4% and the viability at 50 µM is 9.1%.

For `O=C1C(Cl)=C(Cl)C(=O)c2ccccc21` [Dichlon], the half-maximal inhibitory concentration (IC50) stood at 37.8 µM, the viability at 1 µM is 96.5%, the viability at 2 µM worked out at 95.6% and the viability at 3 µM came to 92.3%. In addition, the viability at 4 µM is 92.2%, the viability at 5 µM came out at 91.8%, the viability at 7 µM was found to be 99.3% and the viability at 10 µM is 87.1%. The viability at 25 µM worked out at 89.2% and the viability at 50 µM worked out at 4.9%.

`O=C1C(SCCO)=C(SCCO)C(=O)c2ccccc21` [NSC 95397, 2,3-Bis[(2-hydroxyethyl)thio]-1,4-naphthoquinone] displayed an IC50 of 6.2 µM. Further, under setting [1], the viability at 1 µM came to 104%. For the same compound, the viability at 2 µM under setting [2] was determined as 101%. Also, the viability at 3 µM under setting [3] worked out at 86.6%. Further, the viability at 4 µM under setting [4] came out at 68.4%. Besides, the viability at 5 µM under setting [5] amounted to 53.8%. In addition, under setting [6], the viability at 7 µM was determined as 47.1%. Also, under setting [7], the viability at 10 µM worked out at 36.3%. Further, the viability at 25 µM under setting [8] came to 15.1%. The viability at 50 µM under setting [9] amounted to 4.8%.

`O=C1C=CC(=O)c2c(O)cccc21` [Juglone] returned an IC50 of 5.3 µM. Also, the viability at 1 µM under setting [1] was found to be 90.7%. Further, the viability at 2 µM under setting [2] came out at 85.1%. The viability at 3 µM under setting [3] worked out at 80.6%. Under setting [4], the viability at 4 µM stood at 80.5%. In addition, the viability at 5 µM under setting [5] turned out to be 58.2%. Besides, under setting [6], the viability at 7 µM amounted to 2.3%. Under setting [7], the viability at 10 µM stood at 1.1%. For the same compound, the viability at 25 µM under setting [8] was found to be 2.5%. Besides, the viability at 50 µM under setting [9] was determined as 5.3%.

As for `CC(C)(C)C1=CC(=O)c2cc(C(C)(C)C)ccc2C1=O` [2,6-di-tert-butyl-1,4-naphthoquinone], the “% viability” value under setting [2] was 104.5%; the “% viability” value under setting [3] worked out at 104.7%; the “% viability” value under setting [4] is 103.0%; the “% viability” value under setting [5] amounted to 104.0%; the “% viability” value under setting [6] turned out to be 102.8%; the “% viability” value under setting [7] worked out at 102.2%. Also, the “% viability” value is, setting by setting: under setting [8], 102.9%; under setting [9], 92.9%. Under setting [1], the viability at 1 µM came to 104%.

Compound `COC1=C(OC)C(=O)c2ccccc2C1=O` [DMNQ, 2,3-Dimethoxy-1,4-naphthoquinone] gave an IC50 of 7.35 µM. The viability at 1 µM under setting [1] came to 95%. Under setting [2], the viability at 2 µM stood at 91%. For the same compound, under setting [3], the viability at 3 µM came to 88.5%. Besides, the viability at 4 µM under setting [4] turned out to be 85.9%. The viability at 5 µM under setting [5] was 85.3%. Further, under setting [6], the viability at 7 µM was determined as 58.3%. For the same compound, the viability at 10 µM under setting [7] came to 2.4%. The viability at 25 µM under setting [8] stood at 0.9%. The viability at 50 µM under setting [9] was determined as 0.8%.

In turn, `O=C1C(O)=C(C2=C(O)C(=O)c3ccccc3C2=O)C(=O)c2ccccc21` [Lawsone dimer] gave an IC50 of more than 50 µM. Under setting [1], the viability at 1 µM turned out to be 98.3%. Also, the viability at 2 µM under setting [2] was determined as 98.6%. The viability at 3 µM under setting [3] was determined as 97.4%. The viability at 4 µM under setting [4] came to 95.1%. Also, under setting [5], the viability at 5 µM came out at 96.8%. Besides, the viability at 7 µM under setting [6] stood at 96.1%. The viability at 10 µM under setting [7] was found to be 98.6%. For the same compound, the viability at 25 µM under setting [8] amounted to 99.4%. Besides, under setting [9], the viability at 50 µM was 97.9%.

Compound `O=C1C=C(O)C(=O)c2ccccc21` [Lawsone] came in with an IC50 of more than 50 µM. Moreover, the viability at 1 µM under setting [1] was 90.1%. The viability at 2 µM under setting [2] turned out to be 85.1%. In addition, under setting [3], the viability at 3 µM was 81.3%. Besides, under setting [4], the viability at 4 µM was 82.5%. Also, the viability at 5 µM under setting [5] was 80.4%. Moreover, the viability at 7 µM under setting [6] worked out at 80.3%. For the same compound, under setting [7], the viability at 10 µM stood at 83.1%. The viability at 25 µM under setting [8] was 87%. The viability at 50 µM under setting [9] came out at 96%.

Compound `CC1=CC(=O)c2ccccc2C1=O` [Menadione, menadione] returned an IC50 of 14.5 µM. For the same compound, under setting [1], the viability at 1 µM stood at 95%. Besides, the viability at 2 µM under setting [2] came to 93.1%. Further, the viability at 3 µM under setting [3] turned out to be 90.2%. Moreover, under setting [4], the viability at 4 µM is 93.5%. Under setting [5], the viability at 5 µM was 89.4%. In addition, the viability at 7 µM under setting [6] amounted to 94%. Also, the viability at 10 µM under setting [7] came to 77.5%. Further, under setting [8], the viability at 25 µM is 2.4%. Also, the viability at 50 µM under setting [9] was 2.9%.

For the compound `COC1=CC(=O)c2ccccc2C1=O` [2-methoxy-1,4-naphthoquinone], the IC50 was determined as 8.95 µM. Further, under setting [1], the viability at 1 µM amounted to 93.1%. Besides, the viability at 2 µM under setting [2] was found to be 88.4%. For the same compound, under setting [3], the viability at 3 µM is 86.9%. The viability at 4 µM under setting [4] was 85%. Besides, the viability at 5 µM under setting [5] was 82.5%. Further, under setting [6], the viability at 7 µM was found to be 67.2%. Moreover, under setting [7], the viability at 10 µM stood at 43.5%. In addition, under setting [8], the viability at 25 µM stood at 0.3%.

As for `CC(C)=CCC1=C(O)C(=O)c2ccccc2C1=O` [Lapachol], the IC50 is more than 50 µM. Further, under setting [1], the viability at 1 µM is 106%. Also, under setting [2], the viability at 2 µM amounted to 105%. For the same compound, under setting [3], the viability at 3 µM came out at 102%. For the same compound, the viability at 4 µM under setting [4] was 103%. Further, the viability at 5 µM under setting [5] was determined as 99.8%. The viability at 7 µM under setting [6] was 99.7%. Further, under setting [7], the viability at 10 µM was 99.6%. Further, the viability at 25 µM under setting [8] worked out at 96.2%. Besides, the viability at 50 µM under setting [9] came out at 86.1%.

These data come from patent US10245240B2, “Treatment of prostate carcinoma” (Pellficure Pharmaceuticals, Inc., priority 2010, dated 2019).
